{"source": "patent US10787413B2", "about": "“Derivatives of curcuminoids and use thereof as an anticancer agent” (CHINA MEDICAL UNIVERSITY, priority 2016, dated 2020)", "key": {"[1]": {"system": "T47D", "assay": "Cell viability, T47D breast cancer cells", "assay_type": "cell-based", "conditions": "Homo sapiens; T47D (ER+/PR+), treated for 24 h", "description": "(§1) Cell viability was evaluated by measuring the reduction in MTT to yield blue formazan. Cells were cultured in 96-well plates, allowed to attach overnight, and then treated with compounds. After treatment, MTT solution (1 mg/ml) was added to each well, and plates were incubated for another 4 h. Medium were removed, blue formazan was dissolved in DMSO, and the absorbance was read at 570 nm^20."}, "[2]": {"system": "MDA-MB-231 Xenograft", "experimental": "Female nu/nu mice (5 weeks old) were from National Laboratory Animal Center, Taipei, Taiwan. […] MDA-MB-231 breast cancer cells (5×10^6 cells per mouse) were suspended in 0.1 ml of Matrigel solution (50% (v/v) Matrigel in PBS) and inoculated into the mammary fat pads of the mice. […] Compounds was administered P.O. once every day for 32 days. Tumor size and mouse body weight were measured once every 4 days, and tumor volume (mm3) was calculated using the equation: length×(width)^2×0.5. At the end of experiments, mice were sacrificed and tumor nodules were dissected and weighed."}, "[3]": {"system": "MDA-MB-231 breast cancer cell", "assay": "MTT cell viability assay, MDA-MB-231 breast cancer cell", "assay_type": "cell-based, human", "conditions": "for IC50: Homo sapiens", "description": "Cell viability was evaluated by measuring the reduction in MTT to yield blue formazan. Cells were cultured in 96-well plates, allowed to attach overnight, and then treated with compounds. After treatment, MTT solution (1 mg/ml) was added to each well, and plates were incubated for another 4 h."}, "[4]": {"system": "MDA-MB-231 cells", "assay": "Western blot analysis of treated cells", "assay_type": "cell-based, human", "description": "After treatments, cells were harvested, washed, and suspended in PBS containing proteinase inhibitors and then disrupted with sonication. Protein concentrations were estimated using the Protein Assay kit from Bio-Rad (Hercules, Calif., USA). Samples were resolved with SDS-PAGE and transferred to a polyvinylidene difluoride membrane (EMD Millipore). Each membrane was blocked in 5% (w/v) non-fat milk in Tris-buffered saline with 0.1% (v/v) Tween-20 for 1 h followed by incubation with specific primary antibodies at 4° C. overnight. Each membrane was then incubated with horseradish peroxidase-conjugated secondary antibodies at room temperature for 1 h. Protein signals were detected with the Immobilon Western Chemiluminescent HRP Substrate (EMD Millipore) and visualized using the LAS-4000 imaging system (Fuji, Tokyo, Japan)^25."}, "[5]": {"system": "HS-578T", "assay": "Cell viability, HS-578T breast cancer cells", "assay_type": "cell-based", "conditions": "Homo sapiens; HS-578T (Triple negative), treated for 24 h", "description": "as §1"}, "[6]": {"system": "various breast cancer cell lines", "assay": "Cell viability, various breast cancer cell lines (21a compared with curcumin)", "assay_type": "cell-based", "conditions": "TNBC cells", "description": "as §1"}, "[7]": {"assay": "Stability of 21a in the culture media", "assay_type": "physicochemical", "conditions": "media after 72 h treatment analyzed for curcumin", "description": "Besides, the stability of 21a in the culture media was tested."}, "[8]": {"system": "SKBR-3", "assay": "Cell viability, SKBR-3 breast cancer cells", "assay_type": "cell-based", "conditions": "Homo sapiens, SK-BR-3; SKBR-3 (Her-2+), treated for 24 h", "description": "as §1"}, "[9]": {"system": "HCT-116 colon cancer cell", "assay": "MTT cell viability assay, HCT-116 colon cancer cell", "assay_type": "cell-based", "conditions": "Homo sapiens", "description": "as §1"}, "[10]": {"system": "MDA-MB-231 cells", "assay": "Cell morphology, phase-contrast microscope", "assay_type": "cell-based, human", "conditions": "10 μM, 24 h", "source_text": "For morphological observations, cells were visualized and photographed using a phase-contrast microscope equipped with a digital camera (Leica Microsystems, Wetzlar, Germany)^21."}, "[11]": {"system": "Doxorubicin-resistant MDA-MB-231", "assay": "Cell viability, Doxorubicin-resistant MDA-MB-231", "assay_type": "cell-based", "conditions": "for IC50: Doxorubicin-resistant MDA-MB-231, treated for 24 h", "description": "as §1"}, "[12]": {"assay": "Solubility in water or alcohol", "assay_type": "physicochemical", "conditions": "compared with curcumin"}, "[13]": {"system": "MDA-MB-157", "assay": "Cell viability, MDA-MB-157 breast cancer cells", "assay_type": "cell-based", "conditions": "Homo sapiens; MDA-MB-157 (Triple negative), treated for 24 h", "description": "as §1"}, "[14]": {"system": "PC3 prostate cancer cell", "assay": "MTT cell viability assay, PC3 prostate cancer cell", "assay_type": "cell-based", "description": "as §1"}, "[15]": {"system": "MDA-MB-231 cells", "assay": "Apoptosis analysis (annexin V/propidium iodide)", "assay_type": "cell-based, human", "conditions": "5 μM, 24 and 48 h", "source_text": "After treatments, cells were harvested and stained with annexin V and propidium iodide using the Annexin V: FITC Apoptosis Detection Kit II (BD Biosciences) and subjected to flow cytometry (FACScalibur; Becton-Dickinson, Mountain View, Calif., USA). The percentages of apoptotic cells were quantified with CellQuest software (Becton-Dickinson)^24."}, "[16]": {"system": "MDA-MB-231 cells", "assay": "Cell cycle distribution analysis (PI, flow cytometry)", "assay_type": "cell-based, human", "conditions": "5 μM, 24 h", "description": "For cell cycle and sub-G1 (apoptosis) determinations, the harvested cells were fixed gently by putting 70% ethanol in 4° C. overnight and then re-suspended in PBS containing 40 μg/ml PI and 0.1 mg/ml RNase and 0.1% Triton X-100 in dark room for 30 min at 37° C. Those cells were analyzed with a flow cytometer equipped with an argon ion laser at 488 nm wavelength^22."}, "[17]": {"system": "CDK1", "assay": "CDK1 kinase assay on extracts of treated cells", "assay_type": "cell-based, human", "conditions": "4-12 h of treatment", "description": "CDK1 kinase activity was analyzed according to the protocol of Medical & Biological Laboratories CDK1 kinase assay kit (MBL International, Nagoya, Japan). In brief; the ability of cell extract prepared from each treatment was measured to phosphorylate its specific substrate, MV Peptide as described previously^23."}, "[18]": {"system": "MDA-MB-468", "assay": "Cell viability, MDA-MB-468 breast cancer cells", "assay_type": "cell-based", "conditions": "Homo sapiens; MDA-MB-468 (Triple negative), treated for 24 h", "description": "as §1"}}, "note": "Where two headings read alike, the source gives them in different places."}
{"smiles": "COc1cc(/C=C/C(=O)/C=C(O)/C=C/c2ccc(OC(=O)C(C)(CO)CO)c(OC)c2)ccc1OC(=O)C(C)(CO)CO", "note": "[Compound 21a, ((1E,3Z,6E)-3-Hydroxy-5-oxohepta-1,3,6-triene-1,7-diyl)bis(2-methoxy-4,1-phenylene) bis(3-hydroxy-2-(hydroxymethyl)-2-methylpropenoate)]", "values": [{"measurement": "IC50", "setting": "[1]", "result": "19.3 ± 1.71", "unit": "µM"}, {"measurement": "tumor weight smaller than that of the control group", "setting": "[2]; 21a PO combined with Doxorubicin IP 1 mg/kg/day", "result": 80, "unit": "%"}, {"measurement": "reduction of MDA-MB-231 tumor weight compared with control group", "setting": "[2]; 21a alone, PO (50 mg/kg/day)", "result": 60, "unit": "%"}, {"measurement": "effect of combined use on antitumor activity of Doxorubicin", "setting": "[2]; 21a with Doxorubicin", "result": "enhance the antitumor activity of Doxorubicin"}, {"measurement": "viability of MDA-MB-231 cells", "setting": "[3]; 0, 1, 3, 5 and 10 μM, 24 h, concentration-dependent", "result": "significantly reduced"}, {"measurement": "combination effect with Doxorubicin", "setting": "[3]; 21a in combination with Doxorubicin, MDA-MB-231 cells", "result": "Synergistic anticancer effect"}, {"measurement": "IC50", "setting": "[3]; MDA-MB-231, treated 24 hours, read-out: IC50 24 hours", "result": "5.37 ± 1.22", "unit": "µM"}, {"measurement": "IC50", "setting": "[3]; MDA-MB-231, treated 48 hours, read-out: IC50 48 hours", "result": "3.06 ± 0.18", "unit": "µM"}, {"measurement": "IC50", "setting": "[3]; MDA-MB-231, treated 72 hours, read-out: IC50 72 hours", "result": 2.67, "unit": "µM"}, {"measurement": "times more potent than curcumin (IC50)", "setting": "[3]; MDA-MB-231, 72 h treatment, curcumin IC50 16.23 μM", "result": 6.2, "unit": "times"}, {"measurement": "levels of Cyclin B and CDK 1", "setting": "[4]; 5 μM, 0-24 h", "result": "down-regulated"}, {"measurement": "levels of Bcl-2, Bcl-x", "setting": "[4]; 10 μM, 0-24 h", "result": "downregulated"}, {"measurement": "levels of CHOP, Bip", "setting": "[4]; 10 μM, 0-24 h", "result": "up-regulated"}, {"measurement": "levels of DR5, FADD, Bax", "setting": "[4]; 10 μM, 0-24 h", "result": "up-regulated"}, {"measurement": "levels of Ero1, PD1, PERK1, Calnexin, IRE1α", "setting": "[4]; 10 μM, 0-24 h", "result": "downregulated"}, {"measurement": "levels of Atg5, Atg7, Atg12, Beclin, p62 and LC3B", "setting": "[4]; 10 μM, 4-24 h, time-dependent", "result": "induced"}, {"measurement": "IC50", "setting": "[5]", "result": "7.96 ± 0.27", "unit": "µM"}, {"measurement": "times greater inhibitory activity than curcumin", "setting": "[6]", "result": "3.4-7.4 times"}, {"measurement": "stability in the culture media", "setting": "[7]", "result": "stable"}, {"measurement": "IC50", "setting": "[8]", "result": "6.39 ± 0.43", "unit": "µM"}, {"measurement": "IC50", "setting": "[9]; HCT-116, treated 24 hours, read-out: IC50 24 hours", "result": "10.5 ± 1.03", "unit": "µM"}, {"measurement": "IC50", "setting": "[9]; HCT-116, treated 48 hours, read-out: IC50 48 hours", "result": "6.25 ± 0.596", "unit": "µM"}, {"measurement": "IC50", "setting": "[9]; HCT-116, treated 72 hours, read-out: IC50 72 hours", "result": "3.91 ± 0.27", "unit": "µM"}, {"measurement": "cell morphology", "setting": "[10]", "result": "caused breast cancer cell apoptosis and autophagy"}, {"measurement": "times greater inhibitory activity than curcumin", "setting": "[11]; Doxorubicin-resistant MDA-MB-231", "result": 10, "unit": "times"}, {"measurement": "IC50", "setting": "[11]", "result": "6.52 ± 1.7", "unit": "µM"}, {"measurement": "IC50", "setting": "[11]; Homo sapiens, MDA-MB-231, 24 h", "result": 6.5, "unit": "µM"}, {"measurement": "solubility in either water or alcohol", "setting": "[12]", "result": "better than that of curcumin"}, {"measurement": "IC50", "setting": "[13]", "result": "9.23 ± 0.11", "unit": "µM"}, {"measurement": "IC50", "setting": "[14]; PC-3, treated 24 hours, read-out: IC50 24 hours", "result": "7.8 ± 0.03", "unit": "µM"}, {"measurement": "IC50", "setting": "[14]; PC-3, treated 48 hours, read-out: IC50 48 hours", "result": "6 ± 0.35", "unit": "µM"}, {"measurement": "IC50", "setting": "[14]; PC-3, treated 72 hours, read-out: IC50 72 hours", "result": "3.9 ± 0.08", "unit": "µM"}, {"measurement": "population of annexin V-positive cells", "setting": "[15]", "result": "significantly increased"}, {"measurement": "G2/M cell population", "setting": "[16]", "result": "significantly increased"}, {"measurement": "CDK1 activity", "setting": "[17]", "result": "significant decrease"}, {"measurement": "IC50", "setting": "[18]", "result": "6.13 ± 0.51", "unit": "µM"}]}
